The test system of data set [1] is NQO1. In words: NQO1 expression induction test in mouse kidney (single administration). It is filed as in vivo. The following applies: Mus musculus, po, 6 h, BALB/c mouse kidney, 6 hours after administration, ratio to control group. On the procedure: Each test compound solution for administration was prepared by dissolving or suspending each test compound into a 0.5 w/v % aqueous solution of methylcellulose (0.5% MC) (manufactured by Wako Pure Chemical Industries, Ltd.).
Each prepared test compound was orally administered to a BALB/c mouse (female, provided by Charles River Laboratories Japan, Inc.). Non-treated group was used as a control group. After 6 hours from the administration, each mouse was anesthetized with isoflurane, and euthanized with bloodletting by incising a lower aorta. Immediately, the left kidney was excised, cut into small pieces, and then the cut kidney pieces were transferred to RNA later (Thermo Fisher Scientific).
Then, mRNA was extracted from the collected kidney pieces by using NucleoSpin (registered trademark) RNA Kit (Takara Bio Inc.), each concentration was quantified by FlexStation3 (Molecular Devices), and then the concentration was adjusted to a constant concentration. A reverse transcription synthesis of cDNA was carried out from the mRNA with the constant concentration by using PrimeScript™ RT reagent Kit with gDNA Eraser and PCR Thermal Cycler (Takara Bio Inc.). Then, in addition to the resulting cDNA, SYBR (registered trademark) Premix Ex Taq™ II and NQO1, GAPDH primer (Takara Bio Inc.) were used to carry out Real-time PCR by PCR Thermal Cycler Dice Real time (Takara Bio Inc.), and the NQO1 expression was quantified by using the GAPDH expression as the reference.
In order to evaluate the NQO1 expression induction in each group, the NQO1 expression induction ratio was calculated by using the following equation. (NQO1 expression induction ratio)=(Average NQO1 expression in test compound administered group)[…](Average NQO1 expression in control group)

A short description of data set [2]: Metabolism test using human liver microsome fractions. It is filed as in vitro ADME. The following applies: human liver microsomes, test compound 10 μmol/L, NADPH and UDP-glucuronic acid, 37° C. The essentials:
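Human or monkey liver microsomes (1 mg protein) with NADPH-regenerating system plus UDP-glucuronic acid/UGT mix, 37 °C; compound at 10 μmol/L final. Samples at 0–30 min quenched in acetonitrile, UV-HPLC; elimination rate (pmol/min/mg-P) from linear slope of residual amount over time.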
In general terms: Liver microsomes are vesicles of endoplasmic reticulum, rich in cytochrome P450 enzymes.

Data set [3] relates to NQO1. The data set can be described thus: NQO1 enzyme induction test (in vitro) in Hepa1c1c7 cells. Type of data set: cell-based. To be noted: Mus musculus, Hepa-1c1c7, 48 h, concentration to elevate the NQO1 activity by 1.5 times, about 48 hours, read-out: EC150. The method, then: Each NQO1 assay was carried out by modifying a known method (Anal Biochem 1998; 169: 328-, Methods Enzymol 2004; 382: 243-). Hepa1c1c7 cells (mouse hepatocyte line manufacture by DS Pharma Biomedical Co., Ltd., REF. No. 95090613) were cultured (5% CO2, 37° C.). The cells were cultured in MEMα (manufactured by FUJIFILM Wako Pure Chemical Corporation, REF. 135-15175) medium comprising 10% FBS (manufactured by GIBCO, REF. 10082) and […]/streptomycin/amphotericin B (manufactured by GIBCO, REF. 15240), and dispensed into a 96 well plate (manufactured by Costar, REF. 3610) at 2.0×10^3 cells/well. On the next day, test compound (final concentration of […]: 0.1%) dissolved into DMSO (manufactured by FUJIFILM Wako Pure Chemical Corporation, REF. 043-07216) was added to each well, and the plate was further cultured for about 48 hours.
A cell lysate manufactured by Cell signaling Technology, Inc. (REF. 9803) with the addition of a Protease Inhibitor manufactured by Roche Diagnostics K.K. (REF. 11-873580001) was used. A reaction solution (which is a solution comprising trishydrochloric acid (25 mM), albumin […], Tween-20 (0.01%), glucose-6-phosphate dehydrogenase (2 U/mL), flavin-adenine dinucleotide (5 μM), glucose-6-phosphate (1 μM), nicotinamide adenine dinucleotide phosphate (30 μM), 3-(4,5-dimethyl-2-thiazolyl)-2,5-diphenyltetrazolium bromide (MTT) (0.03%), and menadione (50 μM)), and a stop solution (which is a solution comprising dicumarol (0.3 mM) and potassium dihydrogen phosphate (5 mM), pH 7.4) were prepared. After the medium was removed, cell lysate (50 μL) was added thereto, and the resulting mixture was shaken at room temperature for 20 minutes. The reaction solution (200 μL) was added thereto, and the resulting mixture was left to stand at room temperature for 5 minutes. The stop solution (50 μL) was added thereto, and absorbance at 540 nm (reference 750 nm) was measured.
Cell number was measured by Cell Titer Glo assay (manufactured by Promega Corporation, REF. G9242) by using another plate prepared according to the same conditions as those described above, and correction of absorbance was carried out. The test result was analyzed by Excel, and the EC150 value which is the concentration to elevate the NQO1 activity by 1.5 times was calculated.

Data set [4] has as its target T1, GST fusion human Keap1 (amino acid residue: 325-624) protein (Homo sapiens, UniProt Q14145).
T1 construct: GST fusion human Keap1 (amino acid residue: 325-624) protein; purchased Protein tech Ag0779
The data set can be described thus: Keap1-Nrf2 binding inhibition test (fluorescence polarization). The following applies: compound concentration of 100 nM; read-out: inhibition rate. The method, then: The inhibitory activity of each test compound on the binding between Nrf2 and Keap1 was measured by the fluorescence polarization method. A solution consisting of 20 mM tris-hydrochloride pH7.5 (NIPPON GENE CO., LTD., REF: 318-90225), 150 mM NaCl [FUJIFILM Wako Pure Chemical. Corporation, REF: 191-01665], 0.05% Tween 20 (BioRAD, REF: 161-0781), and 5 mM DTT (FUJIFILM Wako Pure Chemical Corporation, REF: 049-08972) was used as a buffer solution. To a test compound solution (70 μL) adjusted to each concentration with 10% DMSO (FUJIFILM Wako Pure Chemical Corporation, REF: 043-07216) was added a buffer solution (350 μL) comprising 6 nM FITC-labeled Nrf2 peptide (FITC-Ahx-LDEETGEFL-NH2, Invitrogen) and 0.2 mg/mL of BSA (FUJIFILM Wako Pure Chemical Corporation, REF: 017-22231). Each 120 μL of the resulting mixture was dispensed into a black 96 well plate, and a buffer solution (80 μL) comprising 2.5 nM GST fusion human Keap1 (amino acid residue: 325-624) protein (Protein tech, REF: Ag0779) was added thereto. A Keap1-free buffer solution was added to some wells to prepare negative controls. Meanwhile, compound-free wells were used as positive controls. The plate was incubated at room temperature for 30 minutes, and each fluorescence polarization at excitation wavelength of 482 nm and fluorescence wavelength of 530 nm was measured by using a plate reader Clariostar (BMG Labtech). The fluorescence polarization of the negative control was set to be 100% inhibition, fluorescence polarization of the positive control was set to be 0% inhibition, and the inhibition rate of each test compound at 100 nM was calculated by using the following equation. Inhibition rate (%)=100−((Fluorescence polarization when test compound was added−Fluorescence polarization of negative control)/(Fluorescence polarization of positive control−Fluorescence polarization of negative control))×100
On the technique in general: Polarisation of emitted light reports the rotation of a fluorescent probe.

T1 sequence (Q14145 325-624): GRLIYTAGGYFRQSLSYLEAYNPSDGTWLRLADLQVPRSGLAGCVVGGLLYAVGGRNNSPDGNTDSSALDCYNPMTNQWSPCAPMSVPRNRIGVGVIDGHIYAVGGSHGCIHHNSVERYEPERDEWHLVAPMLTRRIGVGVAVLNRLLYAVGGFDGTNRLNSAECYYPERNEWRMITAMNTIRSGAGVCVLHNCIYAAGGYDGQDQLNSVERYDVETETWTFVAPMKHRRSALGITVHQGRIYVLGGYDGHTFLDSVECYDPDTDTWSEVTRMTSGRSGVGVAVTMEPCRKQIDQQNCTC

On to `Cc1ccc(C(c2ccc3c(nnn3C)c2C)C(C)(C)C(=O)O)cc1CN1Cc2cc3ncccc3cc2O[C@H](C)C1` (stereo partly drawn) [Example 75-(b), 3-(1,4-dimethyl-1H-benzo[d][1,2,3]triazol-5-yl)-2,2-dimethyl-3-(4-methyl-3-(((R)-2-methyl-2,3-dihydro-[1,4]oxazepino[7,6-g]quinolin-4 (5H)-yl)methyl)phenyl) propanoic Acid], for which the fold induction at 20 mg/kg in data set [1] was above 6. Besides, the Human metabolic rate result in data set [2] is reported as “E (metabolic rate≥250 pmol/min/mg protein)”. The EC (1.5-fold NQO1 activity) in data set [3] fell in the range of 0.0005 to 0.005 µM. For the same compound, in data set [4], the inhibition at 0.1 µM is at least 50%.

With `CC[C@@H]1CN(Cc2cc(C(c3ccc4c(nnn4C)c3C)C(C)(C)C(=O)O)ccc2C)Cc2cc3c(cc2O1)CCC3` (stereo partly drawn) [Example 3-(b), 3-(1,4-dimethyl-1H-benzo[d][1,2,3]triazol-5-yl)-3-(3-(((R)-2-ethyl-2,3,5,7,8,9-hexahydro-4H-indeno[5,6-f][1,4]oxazepin-4-yl)methyl)-4-methylphenyl)-2,2-dimethylpropanoic Acid], the fold induction at 30 mg/kg in data set [1] was above 6. Besides, in data set [2], the Human metabolic rate entry was “C (150≤metabolic rate<200 pmol/min/mg protein)”. Besides, the EC (1.5-fold NQO1 activity) in data set [3] lay in the range of 0.005 to 0.05 µM. Moreover, the inhibition at 0.1 µM in data set [4] was at least 50%.

Take `CC[C@@H]1CN(Cc2cc(C(c3ccc4c(nnn4C)c3C)C(C)(C)C(=O)O)ccc2C)Cc2cc3cccc(C)c3nc2O1` (stereo partly drawn) [Example 13-(b), 3-(1,4-dimethyl-1H-benzo[d][1,2,3]triazol-5-yl)-3-(3-(((R)-2-ethyl-10-methyl-2,3-dihydro-[1,4]oxazepino[7,6-b]quinolin-4 (5H)-yl)methyl)-4-methylphenyl)-2,2-dimethylpropanoic Acid]: in data set [1], the fold induction at 30 mg/kg fell in the range of 3 to 6. Also, the Human metabolic rate entry in data set [2] is “E (metabolic rate≥250 pmol/min/mg protein)”. Moreover, the EC (1.5-fold NQO1 activity) in data set [3] fell in the range of 0.0005 to 0.005 µM. Moreover, in data set [4], the inhibition at 0.1 µM is at least 50%.

With `CC[C@@H]1CN(Cc2cc(C(c3ccc4c(nnn4C)c3C)C(C)(C)C(=O)O)ccc2C)Cc2ccc3ncccc3c2O1` (stereo partly drawn) [Example 28-(b), 3-(1,4-dimethyl-1H-benzo[d][1,2,3]triazol-5-yl)-3-(3-(((R)-2-ethyl-2,3-dihydro-[1,4]oxazepino[7,6-f]quinolin-4(5H)-yl)methyl)-4-methylphenyl)-2,2-dimethylpropanoic Acid], in data set [1], the fold induction at 30 mg/kg was in the range of 3 to 6. Also, the EC (1.5-fold NQO1 activity) in data set [3] was 0.0005 to 0.005 µM. The inhibition at 0.1 µM in data set [4] is at least 50%.

As to `CC[C@@H]1CN(Cc2cc(C(c3ccc4c(nnn4C)c3C)C(C)(C)C(=O)O)ccc2C)Cc2cc3cc(C)ccc3nc2O1` (stereo partly drawn) [Example 14-(b), 3-(1,4-dimethyl-1H-benzo[d][1,2,3]triazol-5-yl)-3-(3-(((R)-2-ethyl-8-methyl-2,3-dihydro-[1,4]oxazepino[7,6-b]quinolin-4 (5H)-yl)methyl)-4-methylphenyl)-2,2-dimethylpropanoic Acid], the fold induction at 30 mg/kg in data set [1] is above 6. The EC (1.5-fold NQO1 activity) in data set [3] was 0.0005 to 0.005 µM. Further, in data set [4], the inhibition at 0.1 µM is at least 50%.

Turning to `CC[C@@H]1CN(Cc2cc(C(c3ccc4c(nnn4C)c3C)C(C)(C)C(=O)O)ccc2C)Cc2ccc3ccccc3c2O1` (stereo partly drawn) [Example 24-(b), 3-(1,4-dimethyl-1H-benzo[d][1,2,3]triazol-5-yl)-3-(3-(((R)-2-ethyl-2,3-dihydronaphtho[2,1-f][1,4]oxazepin-4(5H)-yl)methyl)-4-methylphenyl)-2,2-dimethylpropanoic Acid], the fold induction at 30 mg/kg in data set [1] was above 6. Further, the EC (1.5-fold NQO1 activity) in data set [3] lay within 0.005 to 0.05 µM. The inhibition at 0.1 µM in data set [4] is at least 50%.

With `CC[C@@H]1CN(Cc2cc(C(c3ccc4c(nnn4C)c3C)C(C)(C)C(=O)O)ccc2C)CC2=C(C=CC3=NCCCN32)O1` (stereo partly drawn) [Example 23, 3-(1,4-dimethyl-1H-benzo[d][1,2,3]triazol-5-yl)-3-(3-(((R)-4-ethyl-1,3,4,9,10,11-hexahydro-2H-pyrimido[1′,2′:1,6]pyrido[2,3-f][1,4]oxazepin-2-yl)methyl)-4-methylphenyl)-2,2-dimethylpropanoic Acid], the fold induction at 30 mg/kg in data set [1] was at most 3. In data set [3], the EC (1.5-fold NQO1 activity) lay in the range of 0.05 to 0.5 µM. Further, the inhibition at 0.1 µM in data set [4] was at least 50%.

Take `CC[C@@H]1CN(Cc2cc(C(c3ccc4c(nnn4C)c3C)C(C)(C)C(=O)O)ccc2C)Cc2ccc3cccnc3c2O1` (stereo partly drawn) [Example 27-(b), 3-(1,4-dimethyl-1H-benzo[d][1,2,3]triazol-5-yl)-3-(3-(((R)-2-ethyl-2,3-dihydro-[1,4]oxazepino[6,7-h]quinolin-4 (5H)-yl)methyl)-4-methylphenyl)-2,2-dimethylpropanoic Acid]: the fold induction at 30 mg/kg in data set [1] is at most 3. Also, the EC (1.5-fold NQO1 activity) in data set [3] lay in the range of 0.005 to 0.05 µM. Moreover, the inhibition at 0.1 µM in data set [4] is at least 50%.

Regarding `CC[C@@H]1CN(Cc2cc(C(c3ccc4c(nnn4C)c3C)C(C)(C)C(=O)O)ccc2C)Cc2cc(Cl)c3ccccc3c2O1` (stereo partly drawn) [Example 67-(b), 3-(3-(((R)-7-chloro-2-ethyl-2,3-dihydronaphtho[2,1-f][1,4]oxazepin-4 (5H)-yl)methyl)-4-methylphenyl)-3-(1,4-dimethyl-1H-benzo[d][1,2,3]triazol-5-yl)-2,2-dimethylpropanoic Acid], the fold induction at 20 mg/kg in data set [1] is at most 3. Besides, in data set [3], the EC (1.5-fold NQO1 activity) was 0.005 to 0.05 µM. Further, in data set [4], the inhibition at 0.1 µM was at least 50%.

As a reminder, the fold induction is the signal under treatment as a multiple of the control signal. For orientation: inhibition means the relative decrease from the control value, in per cent.

(Values after patent publication US12559504B2, “Benzotriazole derivative” (UBE CORPORATION, priority 2019, dated 2026).)
